Here are results for 2 compounds from US20100190856A1, “Novel Polyhydroxylated Compounds as Fatty Acid Synthase (FASN) Inhibitors” (UNIVERSIDAD COMPLUTENSE DE MADRID, priority 2007, published 2010).

Where two headings read alike, the source gives them in different places.

Series [1] has as its system MDA-MB-231 breast cancer cells. Briefly: MTT cytotoxicity assay, MDA-MB-231 breast cancer cells. As to conditions: Homo sapiens, MDA-MB-231 cells, 48 h, read-out: IC50, growth inhibition, MDA-MB-231. Type of series: cell-based, human. (Formazan colour is commonly taken as a measure of viable cells.)
Series [2] can be described thus: Weight loss in vivo (data not shown).
In a further series the test system is AKT. Kind of series: Immunoblot analysis of AKT and phospho-AKT in SK-Br3 cells. The series is classed as cell-based, human. The conditions noted are these: for time after treatment at which a marked decrease of p-AKT was observed / expression levels of p-AKT proteins: SK-Br3, 30 μM; for expression levels of p-AKT proteins: 6 hours after treatment; for active form of Akt: within 2 h after treatment. Here is the method: (§1) Following the treatment of SK-Br3 cells with the studied compound at the desired concentrations and time intervals, cells were harvested by treatment with trypsin-EDTA solution, washed twice with PBS and stored at −80° C. The cells were lysed in lysis buffer (1 mM EDTA, 150 mM NaCl, 100 μg/mL PMSF and 50 mM Tris-HCl, pH 7.5) and kept at 4° C. while they were routinely mixed every 2 min on the vortex during 30 min. A sample was taken for measurement of protein content by a BioRad assay (Bio-Rad Laboratories). Equal amounts of protein were heated in sodium dodecyl sulphate (SDS) sample buffer (Laemmli) for 5 min at 95° C., separated on a 3-8% SDS-polyacrylamide gel (FASN, p185^HER2/neu, phospho-p185^HER2/neu) or 4-12% SDS-polyacrylamide gel (AKT, phospho-AKT, ERK1/2, phospho-ERK1/2 and PARP) and transferred onto nitrocellulose membranes. The membranes were incubated for 1 h at room temperature in blocking buffer (2.5% powdered-skim milk in TBS-T [10 mM Tris-HCl pH 8.0, 150 mM NaCl and 0.05% Tween-20]) to prevent non-specific antibody binding. The primary antibody used was a monoclonal antibody. Antibody dilution was prepared in blocking solution and blots were incubated with monoclonal antibody overnight at 4° C. […] Blots were re-probed with an antibody for β-actin to control for protein loading and transfer.
For orientation: Immunoblotting shows a protein as a band on a membrane.

The subject of series [3] is SK-Br3 breast cancer cells. Kind of series: MTT cytotoxicity assay, SK-Br3 breast cancer cells. Type of series: cell-based, human. As to conditions: for IC50: MTT, 48 h, read-out: IC50, growth inhibition, SK-Br3.
In another series the test system is ERK1/2. Briefly: Immunoblot analysis of ERK1/2 and phospho-ERK1/2 in SK-Br3 cells. The series is classed as cell-based, human. The conditions noted are these: for activation of p-ERK1/2 proteins: SK-Br3, 30 μM, 6 h after treatment; for active form of ERK1/2: within 2 h after treatment. Here is the method: as §1
In another series the test system is PARP. Briefly: Immunoblot analysis of PARP cleavage in SK-Br3 cells. The conditions noted are these: for 89 KDa product of PARP cleavage: SK-Br3 cells, 30 μM, 12, 24 and 48 h. The series is classed as cell-based, human. Here is the method:
as §1
Western blot analysis for poly-ADP-ribose polymerase (PARP) was performed on SK-Br3 cells exposed for 12, 24 and 48 h to compound f (30 μM) and compound i (30 μM). Apoptosis and induction of caspase activity was confirmed by Western blotting analysis showing cleavage of PARP.

The test system of a further series is HER2. Briefly: Immunoblot analysis of p185HER2/neu and phospho-p185HER2/neu in SK-Br3 cells. Type of series: cell-based, human. As to conditions: for level of total HER2 / expression levels of p-HER2 proteins / levels of p-HER2 proteins: SK-Br3, 30 μM; for level of total HER2: Western blotting or HER2-specific ELISA; for expression levels of p-HER2 proteins: within 2 h after exposure; for levels of p-HER2 proteins: within 6 h after treatment; for active form of oncoprotein HER2: within 2 h after treatment. Here is the method:
as §1
We have examined the time-dependent effects of compound f (30 μM) and compound i (30 μM) on HER2, AKT and ERK1/2 activation.

Series [4] relates to Non-malignant fibroblasts N-1. Briefly: MTT cytotoxicity assay, non-malignant fibroblasts N-1. The series is classed as cell-based. The conditions noted are these: for IC50: Fibroblast, non-malignant fibroblasts, MTT, 48 h, read-out: IC50, growth inhibition, Fibroblasts; for effect on non-malignant cells / normal fibroblasts: at concentrations similar to IC50; for effects in cell death / morphology changes in non-malignant cells: up to doses three-fold their cytotoxic IC50 value in tumoral cells.

Series [5] deals with MCF-7 breast cancer cells. Kind of series: MTT cytotoxicity assay, MCF-7 breast cancer cells. Type of series: cell-based, human. As to conditions: Homo sapiens, MCF7, MCF-7 cells, 48 h, read-out: IC50, growth inhibition, MCF-7.

Broadly, the IC50 is the concentration that inhibits the measured activity by half. In the case of `O=C(Oc1ccc(OC(=O)c2cc(O)c(O)c(O)c2)c2ccccc12)c1cc(O)c(O)c(O)c1` [i, 1,4-bis[(3,4,5-trihydroxybenzoyl)oxy]naphthalene], in [1], the IC50 amounted to 62.5 ± 10.6 µM. The “weight loss in vivo” value in series [2] is on record as “without inducing weight loss in vivo”. In the series with AKT, the “time after treatment at which a marked decrease of p-AKT was observed” value worked out at 12 h, the “expression levels of p-AKT proteins” value is recorded as “low decrease” and the “active form of Akt” value was “marked decrease”. Moreover, in [3], the “relative IC50 ratio of EGCG to compound” value came to 5.4 and the IC50 worked out at 28 µM. The IC50 in [3] (Homo sapiens, SK-BR-3, 48 h) came to 28.7 ± 0.3 µM. Moreover, in the series with ERK1/2, the “activation of p-ERK1/2 proteins” value is “marked decrease” and the “active form of ERK1/2” value was “marked decrease”. In addition, in the series on PARP, the “induction of apoptosis (cleavage of PARP)” value is “induced apoptosis” and the “89 KDa product of PARP cleavage” value is recorded as “marked increase”. In addition, in the series with HER2, the “level of total HER2” value is reported as “no significant change”, the “expression levels of p-HER2 proteins” value is reported as “markedly decreased”, the “levels of p-HER2 proteins” value was “total decrease” and the “active form of oncoprotein HER2” value was “marked decrease”. Further, in series [4], the IC50 was over 150 µM, the “effect on non-malignant cells / normal fibroblasts” value is “not affected” and the “effects in cell death / morphology changes in non-malignant cells” value is listed as “No significant effects”. Moreover, in series [5], the IC50 stood at 44.4 ± 16.3 µM.

For `O=C(Oc1cc(OC(=O)c2cc(O)c(O)c(O)c2)c2ccccc2c1)c1cc(O)c(O)c(O)c1` [f, 1,3-bis[(3,4,5-trihydroxybenzoyl)oxy]naphthalene], the IC50 in series [1] was found to be 78.7 ± 4 µM. The “weight loss in vivo” value in series [2] is “without inducing weight loss in vivo”. In the series with AKT, the “time after treatment at which a marked decrease of p-AKT was observed” value is reported as 24 h, the “expression levels of p-AKT proteins” value was “low decrease” and the “active form of Akt” value is reported as “marked decrease”. In series [3], the “relative IC50 ratio of EGCG to compound” value came to 7.5 and the IC50 was 20 µM. Further, in series [3] (Homo sapiens, SK-BR-3, 48 h), the IC50 came to 21.3 ± 6.7 µM. In addition, in the series with ERK1/2, the “activation of p-ERK1/2 proteins” value is listed as “marked decrease” and the “active form of ERK1/2” value is recorded as “marked decrease”. In the series on PARP, the “induction of apoptosis (cleavage of PARP)” value is given as “induced apoptosis” and the “89 KDa product of PARP cleavage” value is listed as “marked increase”. Further, in the series with HER2, the “level of total HER2” value is reported as “no significant change”, the “expression levels of p-HER2 proteins” value is listed as “markedly decreased”, the “levels of p-HER2 proteins” value is given as “total decrease” and the “active form of oncoprotein HER2” value is “marked decrease”. Also, in series [4], the concentration for half-maximal inhibition (IC50) is over 150 µM, the “effect on non-malignant cells / normal fibroblasts” value is recorded as “not affected” and the “effects in cell death / morphology changes in non-malignant cells” value is listed as “No significant effects”. Moreover, the IC50 in series [5] is 46.3 ± 18 µM.
